Data taken from article PMC8080589, “Modulation of αVβ6 integrin in osteoarthritis-related synovitis and the interaction with VTN(381–397 a.a.) competing for TGF-β1 activation” (Experimental & Molecular Medicine, 2021).

B1: HMGB1: danger-associated molecular pattern (protein, UniProt P09429 1-215, looked up)
High mobility group protein B1: MGKGDPKKPRGKMSSYAFFVQTCREEHKKKHPDASVNFSEFSKKCSERWKTMSAKEKGKFEDMAKADKARYEREMKTYIPPKGETKKKFKDPNAPKRPPSAFFLFCSEYRPKIKGEHPGLSIGDVAKKLGEMWNNTAADDKQPYEKKAAKLKEKYEKDIAAYRAKGKPDAAKKGVVKAEKSKKKKEEEEDEEDEEDEEEEEDEEDEDEEEDDDDE
B2: S100A9: danger-associated molecular pattern (protein, UniProt P06702 1-114, looked up)
Protein S100-A9: MTCKMSQLERNIETIINTFHQYSVKLGHPDTLNQGEFKELVRKDLQNFLKKENKNEKVIEHIMEDLDTNADKQLSFEEFIMLMARLTWASHEKMHEGDEGPGHHHKPGLGEGTP

Legend:
[1] = tested on: β6 integrin subunit expression, human fibroblast-like synoviocytes (FLSs); experiment: β6 subunit expression in FLSs by western blot after stimulation; format: cell-based; conditions: OA FLSs, western blot normalized to GAPDH; IL-1β, IL-6, TNF-α 10 ng/mL 3 or 7 days; prednisolone, dexamethasone 1 μM 3 or 7 days; HMGB1 10, 50, 100 ng/mL 3 days; S100A9, S100A12 100, 200 ng/mL 3 days or 24 h; AGE-BSA 50, 100, 200 μg/mL 3 days or 24 h; menadione 25–50–100 μM 3 h; H2O2 100–200–400 μM 2 h
Description: (§1) Synovial membranes were obtained from 22 OA patients (14 females, 8 males; mean age 69.8 ± 9.6 years, BMI 30.9 ± 6.8) during knee replacement, and primary synovial fibroblasts were isolated as explained previously. The research ethics committee of CHU de Liege (Belgium) approved the study, and the patient gave informed consent to allow research procedures on samples. Human fibroblast-like synoviocytes (FLSs) were then cultured in DMEM supplemented with 10% FBS, 1% Pen/Strep, and 1% L-glutamine (all from Lonza; Basel, Switzerland) at 37 °C in an atmosphere of 5% CO2. In a plate, 5 × 10^4 FLSs were stimulated with different compounds to analyze the modulation of αVβ6: (i) TGF-β1, TNF-α, IL-1β, or IL-6 were used for 3 or 7 days at a concentration of 10 ng/mL; (ii) among the danger-associated molecular patterns, high-mobility group box 1 (HMGB1) was tested at 10, 50, and 100 ng/mL for 3 days, while S100A9 and S100A12 were tested at 100 and 200 ng/mL for 3 days or 24 h; (iii) advanced glycation end product (AGE-BSA) was tested at 50, 100, and 200 μg/mL for 3 days or 24 h; (iv) prednisolone and dexamethasone were used at 1 μM for 3 or 7 days; and (v) menadione or H2O2 was used to induce oxidative stress at 25–50–100 μM (3 h) and 100–200–400 μM (2 h), respectively, without FBS in the medium.
(§2) The expression of αV and β6 subunits and α-SMA in FLSs was evaluated by western blot analysis. Cells were scraped from plates and lysed with lysis buffer (25 mM HEPES, 150 mM NaCl, 0.5% Triton, 10% glycerol, 1 mM dithiothreitol) containing phosphatase inhibitors (25 mM β-glycerophosphate, 1 mM Na3VO4, and 1 mM NaF) and complete protease inhibitor mixture (Roche Applied Science; Penzberg, Germany). Total proteins were separated by 10% SDS–PAGE gels (12% for α-SMA) and transferred onto PVDF membranes. The membranes were then incubated with anti-αV polyclonal antibody (1:250 dilution) (Cell Signaling Technology; Boston, MA, USA), anti-β6 polyclonal antibody (1:1000 dilution) (Abcam; Cambridge, UK) or anti-α-SMA monoclonal antibody (Agilent; Santa Clara, CA, USA; 1:1000 dilution). HRP-conjugated anti-rabbit antibody (1:1000 dilution) (Cell Signaling Technology) was used as the secondary antibody. Immunoblots were developed using the ECL chemiluminescent detection system. Rabbit anti-glyceraldehyde 3-phosphate dehydrogenase (GAPDH) (Merck) or rabbit anti-heat shock protein 90 (Hsp90; Santa Cruz) was used as loading controls at a dilution of 1:10,000 or 1:200, respectively. Values of optical intensity were normalized to GAPDH or Hsp90 levels. Data were analyzed by paired Wilcoxon test; a p-value < 0.05 was considered statistically significant. Statistical analysis was performed with GraphPad Prism 6 software (San Diego, CA, USA).
IL-1β 10 ng/mL 3 days IL-6 10 ng/mL 3 daysIL-6 Prednisolone 1µM 3 daysPrednisolone
0.0 control IL-6 0.0 control PRE
Dexamethasone 1µM 3 daysDexamethasone TNF-α 10 ng/mL 3 days AGE 50 µg/mL 24 h

[2] = tested on: αV integrin subunit expression, human fibroblast-like synoviocytes (FLSs); experiment: αV subunit expression in FLSs by western blot after stimulation; format: cell-based; conditions: OA FLSs, western blot normalized to GAPDH; IL-1β, IL-6, TNF-α 10 ng/mL 3 or 7 days; prednisolone, dexamethasone 1 μM 3 or 7 days; HMGB1 10, 50, 100 ng/mL 3 days; S100A9, S100A12 100, 200 ng/mL 3 days or 24 h; AGE-BSA 50, 100, 200 μg/mL 3 days or 24 h; menadione 25–50–100 μM 3 h; H2O2 100–200–400 μM 2 h
Description: as §1, §2
Supplementary information SI3.
Variation of αV and β6 expression in human fibroblast-like synoviocytes after stimulation with different compounds. Time of stimulation and employed substances are indicated. The graphs represent αV and β6 expression before and after stimulation, obtained by western blot. Values were normalized to GAPDH and analysed by paired Wilcoxon test.
IL-1β 10 ng/mL 3 days IL-6 10 ng/mL 3 daysIL-6 Prednisolone 1µM 3 daysPrednisolone […]
Dexamethasone 1µM 3 days TNF-α 10 ng/mL 3 days TGF-β 10 ng/mL 3 days
(1 picture or pasted object on this page, not shown here)
0.0 control IL-6 0.0 control PRE […]

Molecule	effect on β6 subunit expression [1]	effect on αV subunit expression [2]
OO [H2O2]	none of these treatments influenced the expression levels of the αV and β6 integrin subunits	none of these treatments influenced the expression levels of the αV and β6 integrin subunits
C[C@@H]1C[C@H]2[C@@H]3CCC4=CC(=O)C=C[C@]4(C)[C@@]3(F)[C@@H](O)C[C@]2(C)[C@@]1(O)C(=O)CO [dexamethasone]	none of these treatments influenced the expression levels of the αV and β6 integrin subunits	none of these treatments influenced the expression levels of the αV and β6 integrin subunits
CC1=CC(=O)c2ccccc2C1=O [menadione]	none of these treatments influenced the expression levels of the αV and β6 integrin subunits	none of these treatments influenced the expression levels of the αV and β6 integrin subunits
C[C@]12C=CC(=O)C=C1CC[C@@H]1[C@@H]2[C@@H](O)C[C@@]2(C)[C@H]1CC[C@]2(O)C(=O)CO [prednisolone]	none of these treatments influenced the expression levels of the αV and β6 integrin subunits	none of these treatments influenced the expression levels of the αV and β6 integrin subunits
AGE-BSA: advanced glycation end product	none of these treatments influenced the expression levels of the αV and β6 integrin subunits	none of these treatments influenced the expression levels of the αV and β6 integrin subunits
IL-1β: proinflammatory cytokine	none of these treatments influenced the expression levels of the αV and β6 integrin subunits	none of these treatments influenced the expression levels of the αV and β6 integrin subunits
IL-6: proinflammatory cytokine	none of these treatments influenced the expression levels of the αV and β6 integrin subunits	none of these treatments influenced the expression levels of the αV and β6 integrin subunits
TNF-α	none of these treatments influenced the expression levels of the αV and β6 integrin subunits	none of these treatments influenced the expression levels of the αV and β6 integrin subunits
B1	none of these treatments influenced the expression levels of the αV and β6 integrin subunits	none of these treatments influenced the expression levels of the αV and β6 integrin subunits
B2	none of these treatments influenced the expression levels of the αV and β6 integrin subunits	none of these treatments influenced the expression levels of the αV and β6 integrin subunits
